Key:
Format in all cases: cell-based
Colo-205 cells = experiment: Calcium flux assay (FLIPR Calcium 5); conditions: Homo sapiens, COLO 205, 0.6 h, FLIPR Calcium 5, measured over 36 minutes
Procedure: Compounds described herein induced ER stress by causing intracellular calcium flux. Calcium flux was measured in Colo-205 cells using the FLTPR® Calcium 5 Assay Kit according to manufacter's protocol (Molecular Devices, Cat. #R8186) on a FLIPR3 system (Molecular Devices). Calcium flux is measured over 36 minutes. The Colo-205 calcium flux assay data are summarized in Table 47: A<0.6 μM; 0.6 μM≤B<2.0 μM; 2.0 μM≤C<10.0 μM; D≥10.0 μM.

HepG2 parental = experiment: In vitro cell viability (CellTiter-Glo), HepG2 parental; conditions: Homo sapiens, 96 hours, read-out: HepG2 viability
Procedure: HEK293 cells containing empty pCLPCx vector (HEK293 empty), HEK293 cells stably over-expression WFS1 (HEK293 WFS1), HepG2, and HepG2 cells where WFS1 was depleted via CRISPR/Cas9 (HepG2 WFS1 KO) cells were plated into 96-well black plates (Corning, product #3904) in 100 microliters of complete DMEM cell culture media [DMEM (Life Technologies, product #11960-051) media supplemented with 10% FBS (Hyclone, catalog #SH30071.03), antimycotic/antibiotic (Life Technologies, product #15240-062), and Glutamax (Life Technologies, product #35050-061)] at 1,000 (HEK293) or 5,000 (HepG2) cells per well. Cells were allowed to attach and grow overnight, after which compounds are added at various concentrations. Cell viability was assessed 96 hrs after compound addition with CellTiter-Glo reagent (Promega, catalog #G7570) according to manufacturer's protocol and measurement on a Pherastar luminescence plate reader (BMG Labtech).
To determine the effect of WFS1 depletion on compound mediated inhibition of cell viability, parental HepG2 cells and HepG2 cells where WFS1 was deleted by CRISPR/Cas9 were exposed to increasing concentrations of either Compound 136 or Compound 253 for 96 hours after which time viability was determined using Cell Titer Glo reagent (Promega). […] The IC50s for the viability of both the HepG2 parental and WFS1 knockout cells are summarized in Table 47: A<0.5 μM; 0.5 μM≤<2.0 μM; 2.0 μM≤C<10.0 μM; D≥[…].

[1] = test system: Hek293 WFS1 over-expressor; experiment: In vitro cell viability (CellTiter-Glo), Hek293 WFS1 over-expressor; conditions: Homo sapiens, HEK293, Hek293 WFS1 over-expressing cells; read-out: Hek293 WFS1 viability
How it was run: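 HEK293 cells stably overexpressing WFS1 via retroviral transduction (puromycin-selected), with empty-vector cells as counterpart, plated 1,000/well. Compounds added at various concentrations after overnight attachment; viability by CellTiter-Glo luminescence after 96 h, reported as IC50.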

EC50 (Colo-205 cells) [nM] | SMILES | IC50 (HepG2 parental) [nM] | IC50 [1] [nM]
2000 to 10000 | Cc1cnc(C(F)(F)F)nc1-n1cc(CNc2ncc3c(n2)N(C)[C@@H](C)C(=O)N3)cn1 [Compound 164, (7S)-7,8-dimethyl-2-(((1-(5-methyl-2-(trifluoromethyl)pyrimidin-4-yl)-1H-pyrazol-4-yl)methyl)amino)-7,8-dihydropteridin-6(5H)-one] | ≥ 10000 | 600 to 3000
600 to 2000 | CCOc1ccc(CCn2cc(CNc3ncc4c(n3)N(C)[C@@H](C)C(=O)N4)cn2)cc1 [Compound 121, (7S)-2-(((1-(4-ethoxyphenethyl)-1H-pyrazol-4-yl)methyl)amino)-7,8-dimethyl-7,8-dihydropteridin-6(5H)-one] | ≥ 10000 | 600 to 3000
2000 to 10000 | Cc1nc(NCc2cnn(Cc3ccc(C(F)(F)F)nc3[C@@H](C)O)c2)nc2c1NC(=O)[C@H](C)N2C (single isomer, unassigned) [Compound 420] | 500 to 2000 | 60 to 600
≥ 10000 | CC(=O)N(Cc1cnn(Cc2ccc(C(F)(F)F)nc2)c1)c1nc(C)c2c(n1)N(C)[C@@H](C)C(=O)N2 [Compound 405, (7S)-N-((1-((6-(trifluoromethyl)pyridin-3-yl)methyl)-1H-pyrazol-4-yl)methyl)-N-(4,7,8-trimethyl-6-oxo-5,6,7,8-tetrahydropteridin-2-yl)acetamide] | ≥ 10000 | ≥ 3000
600 to 2000 | Cc1nc(NCc2cnn(Cc3ccc(F)nc3)c2)nc2c1NC(=O)[C@H](C(C)C)N2C [Compound 384, (7S)-2-(((1-((6-fluoropyridin-3-yl)methyl)-1H-pyrazol-4-yl)methyl)amino)-7-isopropyl-4,8-dimethyl-7,8-dihydropteridin-6(5H)-one] | < 500 | < 60
≥ 10000 | Cc1nc(N(C)Cc2cnn(Cc3ccc(C(F)(F)F)nc3)c2)nc2c1NC(=O)[C@H](C)N2C [Compound 403, (7S)-4,7,8-trimethyl-2-(methyl((1-((6-(trifluoromethyl)pyridin-3-yl)methyl)-1H-pyrazol-4-yl)methyl)amino)-7,8-dihydropteridin-6(5H)-one] | ≥ 10000 | ≥ 3000
≥ 10000 | Cc1nc(NCc2cn(Cc3ccc(C(F)(F)F)nc3)cn2)nc2c1NC(=O)[C@H](C)N2C [Compound 428, (S)-4,7,8-trimethyl-2-(((1-((6-(trifluoromethyl)pyridin-3-yl)methyl)-1H-imidazol-4-yl)methyl)amino)-7,8-dihydropteridin-6(5H)-one] | ≥ 10000 | ≥ 3000
600 to 2000 | Cc1ncc(Cn2cc(CNc3nc(C)c4c(n3)N(C)[C@@H](C(C)C)C(=O)N4)cn2)cc1F [Compound 425, (7S)-2-(((1-((5-fluoro-6-methylpyridin-3-yl)methyl)-1H-pyrazol-4-yl)methyl)amino)-7-isopropyl-4,8-dimethyl-7,8-dihydropteridin-6(5H)-one] | 500 to 2000 | 60 to 600
< 600 | Cc1nc(NCc2cnn(Cc3ccc(C(F)(F)F)nc3Cl)c2)nc2c1NC(=O)[C@H](C)N2C [Compound 418, (7S)-2-(((1-((2-chloro-6-(trifluoromethyl)pyridin-3-yl)methyl)-1H-pyrazol-4-yl)methyl)amino)-4,7,8-trimethyl-7,8-dihydropteridin-6(5H)-one] | < 500 | < 60
< 600 | Cc1nc(NCc2cnn(Cc3ccc(C(F)(F)F)cc3)c2)nc2c1NC(=O)[C@H](C)N2C [Compound 149, (7S)-4,7,8-trimethyl-2-(((1-(4-(trifluoromethyl)benzyl)-1H-pyrazol-4-yl)methyl)amino)-7,8-dihydropteridin-6(5H)-one] | < 500 | < 60
600 to 2000 | Cc1nc(NCc2cnn(Cc3ccc(C(F)(F)F)nc3C(C)(C)O)c2)nc2c1NC(=O)[C@H](C)N2C [Compound 416, (7S)-2-(((1-((2-(2-hydroxypropan-2-yl)-6-(trifluoromethyl)pyridin-3-yl)methyl)-1H-pyrazol-4-yl)methyl)amino)-4,7,8-trimethyl-7,8-dihydropteridin-6(5H)-one] | < 500 | < 60

Continued, molecule first:

SMILES | EC50 (Colo-205 cells) [nM] | IC50 (HepG2 parental) [nM] | IC50 [1] [nM]
Cc1nc(NCc2cnn(C3CCN(C(=O)c4ccc(F)cc4)CC3)c2)nc2c1NC(=O)[C@H](C)N2C [Compound 125, (7S)-2-(((1-(1-(4-Fluorobenzoyl)piperidin-4-yl)-1H-pyrazol-4-yl)methyl)amino)-4,7,8-trimethyl-7,8-dihydropteridin-6(5H)-one] | 2000 to 10000 | 2000 to 10000 | 600 to 3000
Cc1nc(N[C@H]2C[C@@H](COc3cc(F)c(F)c(F)c3)C2)nc2c1NC(=O)[C@H](C)N2C [Compound 257, (7S)-4,7,8-Trimethyl-2-((cis-3-((3,4,5-trifluorophenoxy)methyl)cyclobutyl)-amino)-7,8-dihydropteridin-6(5H)-one] | 600 to 2000 | 2000 to 10000 | < 60
Cc1nc(NCc2cnn(CCc3ccc(F)cc3)c2)nc2c1NC(=O)[C@H](C)N2C [Compound 6, (7S)-2-(((1-(4-fluorophenethyl)-1H-pyrazol-4-yl)methyl)amino)-4,7,8-trimethyl-7,8-dihydropteridin-6(5H)-one] | 600 to 2000 | 2000 to 10000 | 60 to 600
Cc1nc(NCc2cnn(Cc3cnc(Cl)c(F)c3)c2)nc2c1NC(=O)[C@H](C(C)C)N2C [Compound 424, (7S)-2-(((1-((6-chloro-5-fluoropyridin-3-yl)methyl)-1H-pyrazol-4-yl)methyl)amino)-7-isopropyl-4,8-dimethyl-7,8-dihydropteridin-6(5H)-one] | 600 to 2000 | < 500 | < 60
Cc1nc(NCc2cnn(Cc3ccc(C(F)(F)F)nc3)c2)nc2c1NC(=O)C1(CCC1)N2C [Compound 398, 4′,8′-dimethyl-2′-(((1-((6-(trifluoromethyl)pyridin-3-yl)methyl)-1H-pyrazol-4-yl)methyl)amino)-5′,8′-dihydro-6′H-spiro[cyclobutane-1,7′-pteridin]-6′-one] | 600 to 2000 | 500 to 2000 | < 60
Cc1nc(N[C@H]2C[C@H](Oc3ccc(F)nc3)C2)nc2c1NC(=O)[C@H](C)N2C [Compound 357, (7S)-2-((trans-3-((6-fluoropyridin-3-yl)oxy)cyclobutyl)amino)-4,7,8-trimethyl-7,8-dihydropteridin-6(5H)-one] | 600 to 2000 | 2000 to 10000 | 60 to 600
Cc1nc(NCc2cnn(Cc3ccc(F)cc3)c2)nc2c1NC(=O)C1(CC1)N2 [Compound 222, 2′-(((1-(4-fluorobenzyl)-1H-pyrazol-4-yl)methyl)amino)-4′-methyl-5′,8′-dihydro-6′H-spiro[cyclopropane-1,7′-pteridin]-6′-one] | 2000 to 10000 | ≥ 10000 | ≥ 3000
Cc1nc(N[C@@H]2CC[C@@H](Oc3cc(F)c(F)c(F)c3)C2)nc2c1N(C)C(=O)[C@H](C)N2C [Compound 272, (S)-4,5,7,8-tetramethyl-2-(((1R,3R)-3-(3,4,5-trifluorophenoxy)cyclopentyl)amino)-7,8-dihydropteridin-6(5H)-one] | 600 to 2000 | < 500 | < 60
Cc1nc(N[C@@H]2CC[C@@H](n3ccc(C(F)(F)F)n3)C2)nc2c1NC(=O)[C@H](C)N2C (single isomer, unassigned) [Compound 311] | < 600 | ≥ 10000 | < 60
Cc1nc(NCc2cnn(Cc3ccc(F)cc3)c2)nc2c1N(C)C(=O)[C@H](C)N2C [Compound 1, (7S)-2-(((1-(4-fluorobenzyl)-1H-pyrazol-4-yl)methyl)amino)-4,5,7,8-tetramethyl-7,8-dihydropteridin-6(5H)-one] | < 600 | < 500 | < 60
Cc1nc(N[C@H]2C[C@@H](COc3ccc(C(F)(F)F)cn3)C2)nc2c1NC(=O)[C@H](C)N2C [Compound 356, (7S)-4,7,8-trimethyl-2-((cis-3-(((5-(trifluoromethyl)pyridin-2-yl)oxy)methyl)cyclobutyl)amino)-7,8-dihydropteridin-6(5H)-one] | 600 to 2000 | ≥ 10000 | < 60
Cc1nc(NCc2cnn(CCc3ccc(F)cc3)c2)nc2c1N(C)C(=O)[C@H](C)N2C [Compound 8, (7S)-2-(((1-(4-fluorophenethyl)-1H-pyrazol-4-yl)methyl)amino)-4,5,7,8-tetramethyl-7,8-dihydropteridin-6(5H)-one] | 2000 to 10000 | 2000 to 10000 | ≥ 3000

Source: US20230312587A1, “PTERIDINONE COMPOUNDS AND USES THEREOF” (Vertex Pharmaceutical Incorporated, priority 2018, published 2023)
